These results are taken from ChEMBL document CHEMBL1151396, “Synthesis of naphthoquinoles as potential antitumor agents related to jacaranone” (1982).

Converted amounts (≈) assume the structure as drawn.

In one experiment the test system is KB. Kind of experiment: Cytotoxicity against human KB cells. It counts as functional. The note with it: read-out: ED50 (the source's name).
On to `CCOC(=O)CC1(O)C=CC(=O)C=C1`, for which the EC50 was 3.3 µg/mL (≈ 16.8 µM).

As to `COC(=O)CC1(O)C=CC(=O)c2ccccc21` (stereo unspecified), the EC50 was 20 µg/mL (≈ 86.1 µM).

As to `COC(=O)CC1(O)C=C(OC)C(=O)c2ccccc21` (stereo unspecified), the EC50 was 25 µg/mL (≈ 95.3 µM).

Turning to `COC(=O)CC1(O)C=C(C)C(=O)c2ccccc21` (stereo unspecified), the EC50 came out at 100 µg/mL (≈ 406 µM).

In the case of `COC(=O)CC1(O)C=CC(=O)C=C1` [JACARANONE], the EC50 came out at 2.1 µg/mL (≈ 11.5 µM).

A further experiment has as its system P388. Kind of experiment: In vivo cytotoxicity against mouse P388 cells at 2 mg/kg relative to control.
Conditions: not given
It counts as functional.
In the case of `COC(=O)CC1(O)C=CC(=O)C=C1` [JACARANONE], the T/C (in general, the result in the treated group divided by that in the control group, in per cent) was 165%.
